# Test results: patent US5236927A, “Anti-cancer quinazoline derivatives” (National Research Development Corporation, priority 1985, dated 1993)
# “And” between values parts separate entries of the source, which are not always exact repeats. Equal entries are not always repeated. Where two headings read alike, the source gives them in different places.
# Key:
# L1210/C15 cells = test: L1210/C15 cell culture growth inhibition (overproduces TS 45-fold); type: cell-based; settings: 48 hours; at 100 uM
# Protocol: Cell counts after 48 hours of incubation were obtained by Coulter counting.
# L1210 cells = test: Reversal of L1210 toxicity by co-incubation with thymidine; type: cell-based
# Protocol: Cells in the log phase of growth were diluted to about 5×10^4 /ml and duplicate 5ml aliquots were added to 50 ml tissue culture flasks containing the appropriate additions (diluted in RPMI and sterilised by Millipore filtration). Cell counts after 48 hours of incubation were obtained by Coulter counting.
# [1] = system: de novo thymidylate synthesis in L1210 cells; test: Incorporation of 3H dUrd into acid-precipitable material in L1210 cells; type: cell-based; settings: Mus musculus, L1210, 10 min; 10 uM, by about 10 minutes
# Protocol: L1210 cells were used at a concentration of 10^5 /ml. Incubation at 37° C. was in complete RPMI tissue culture medium plus or minus drugs for the lengths of time indicated on the graphs. After this time ^3 H dUrd was added at a concentration of 2 uCi/ml (about 0.2 uM). Three 1 ml aliquots were removed after 20 minutes, placed on ice and mixed with 1 ml of ice-cold phosphate buffered saline (PBS). Precipitation onto glass-fibre discs was performed by trichloroacetic acid washing followed by PBS. […] This is an indirect measurement of de novo thymidylate synthesis in whole cells. […] These concentrations are 10 times the ID50 values.
# L1210 tumour = test: Treatment of L1210 tumour-bearing mice; type: in vivo, mouse
# Protocol: (§1) The L1210 tumour is carried routinely in DBA2 mice at the Institute of Cancer Research (L1210/CBRI). For experiments 5×10^4 cells were implanted i.p. into male C57Bl×DBA2 F1 hybrid mice 3 days prior to treatment. […] The control group consisted of 9 mice and treated groups 6 or 7 mice.
# [2] = Comparative pharmacokinetics in the mouse (plasma, liver, kidney levels); type: in vivo; settings: for concentration at 3 h / concentration at 6 h: plasma, ip, read-out: Plasma quinazoline conc.
# Protocol: 3 Hours and 6 hours after administration groups of three mice at each dose level were sacrificed by exsanguination via cardiac puncture. Plasma was prepared and the livers and kidneys excised and weighed.
# alanine transaminase [3] = test: Comparative hepatotoxicity in the mouse (plasma alanine transaminase); type: in vivo
# Protocol: […]. Plasma was prepared and the livers and kidneys excised and weighed.
# Samples of plasma were also analysed for the enzyme alanine transaminase, an indicator of hepatotoxicity. […]
# [4] = Urinary and faecal elimination in the mouse; type: in vivo; settings: 100 mg/kg i.p.; for dose excreted at 48 h: ip, 0-48 h
# [5] = Toxicity and weight loss in treated L1210 tumour-bearing mice; type: in vivo, mouse
# Protocol: as §1
# alanine transaminase [6] = settings: rat, in vivo
# Protocol: (§2) During and after the infusion blood and bile samples were collected. Four hours after the experiment the rats were sacrificed and the urine collected from the bladder and the liver and kidneys removed.
# (§3) Samples of plasma were also analysed for alanine transaminase.
# Pharmacokinetics in rats = settings: 100 mg/kg 1 h i.v. infusion; for concentration: read-out: Plasma levels
# Protocol: as §2, §3
# alanine transaminase [7] = test: Hepatotoxicity in rats (plasma alanine transaminase); settings: 100 mg/kg 1 h i.v. infusion
# Protocol: as §2, §3
# [8] = compound 5 uM + 10 uM thymidine
# [9] = 100 mg/kg i.p., 3 h post-treatment
# [10] = 100 mg/kg i.p., 6 h post-treatment
# [11] = 300 mg/kg i.p., 3 h post-treatment
# [12] = 300 mg/kg i.p., 6 h post-treatment
# [13] = 500 mg/kg i.p., 3 h post-treatment
# [14] = 500 mg/kg i.p., 6 h post-treatment
smiles,measurement,setting,value
"C#CCN(Cc1ccc2nc[nH]c(=O)c2c1)c1ccc(C(=O)N[C@@H](CCC(=O)O)C(=O)O)cc1 [CB3804, N-(4-(N-((3,4-dihydro-4-oxo-6-quinazolinyl)methyl)prop-2-ynylamino)benzoyl)-L-glutamic acid]",L1210/C15 ID50,L1210/C15 cells,no inhibition
same,Cell count at 48 hours as % control,L1210 cells; [8],98 % control
same,Reversal of L1210 toxicity by thymidine,L1210 cells; [8],reversal was complete
same,Cell count at 48 hours as % control,L1210 cells; compound 50 uM + 10 uM thymidine,75 % control
same,activity at 10 µM,[1],< 20%
same,anti-tumour effectiveness,"L1210 tumour; 25 mg/kg i.p. daily ×5, versus other treatments",much less effective
same,"""cures"" (survived >100 days)",L1210 tumour; 50 mg/kg i.p. daily ×5,about 65%
same,"""cures"" (survived >100 days)",L1210 tumour; 100 mg/kg i.p. daily ×5,about 80%
same,anti-tumour activity compared with CB3717,L1210 tumour; in vivo,comparable anti-tumour activity
same,Kidney quinazoline level,[2]; [9],< 0.1 % dose administered
same,Liver quinazoline level,[2]; [9],< 0.1 % dose administered
same,Kidney quinazoline level,[2]; [10],< 0.1 % dose administered
same,Liver quinazoline level,[2]; [10],< 0.1 % dose administered
same,Kidney quinazoline level,[2]; [11],< 0.03 % dose administered
same,Liver quinazoline level,[2]; [11],< 0.03 % dose administered
same,Kidney quinazoline level,[2]; [12],< 0.03 % dose administered
same,Liver quinazoline level,[2]; [12],< 0.03 % dose administered
same,Kidney quinazoline level,[2]; [13],< 0.1 % dose administered
same,Liver quinazoline level,[2]; [13],< 0.2 % dose administered
same,Kidney quinazoline level,[2]; [14],< 0.1 % dose administered
same,Liver quinazoline level,[2]; [14],< 0.2 % dose administered
same,"detection in plasma, liver and kidneys","[2]; mice, 3 and 6 hours after i.p. dose, for CB3804 except plasma 3 h at 500 mg/kg",below the limit of detection
same,accumulation in the kidneys,"[2]; mouse, in vivo",does not apparently accumulate in the kidneys
same,concentration at 3 h,"[2]; mouse, 100 mg/kg i.p., 3 h post-treatment",< 5 µM
same,concentration at 6 h,"[2]; mouse, 100 mg/kg i.p., 6 h post-treatment",< 5 µM
same,concentration at 3 h,"[2]; mouse, 300 mg/kg i.p., 3 h post-treatment",< 5 µM
same,concentration at 6 h,"[2]; mouse, 300 mg/kg i.p., 6 h post-treatment",< 5 µM
same,concentration at 3 h,"[2]; mouse, 500 mg/kg i.p., 3 h post-treatment",5 µM
same,concentration at 6 h,"[2]; mouse, 500 mg/kg i.p., 6 h post-treatment",< 5 µM
same,Plasma alanine transaminase level,alanine transaminase [3]; [9],19 ± 3 U/L
same,Plasma alanine transaminase level,alanine transaminase [3]; [10],10 ± 6 U/L
same,Plasma alanine transaminase level,alanine transaminase [3]; [11],10 ± 4 U/L
same,Plasma alanine transaminase level,alanine transaminase [3]; [12],8 ± 3 U/L
same,Plasma alanine transaminase level,alanine transaminase [3]; [13],16 ± 3 U/L
same,Plasma alanine transaminase level,alanine transaminase [3]; [14],16 ± 2 U/L
same,Levels of alanine transaminase (in words),"alanine transaminase [3]; mice i.p., normal range 5-25U/l",within the normal range
same,hepatotoxicity,"alanine transaminase [3]; mice, at the doses studied",not hepatotoxic
same,bioavailability following i.p. administration,[4],satisfactory bioavailability
same,components in faeces which may represent metabolites,[4],two components were observed in faeces
same,dose excreted at 48 h,"[4]; faeces, read-out: Faecal excretion of the parent compound",15 ± 13%
same,dose excreted at 48 h,"[4]; urine, read-out: Urinary excretion of the parent compound",4 ± 1%
same,signs of toxicity,[5]; 200 mg/kg i.p. daily ×5,no obvious signs of toxicity
same,weight loss,[5]; 200 mg/kg i.p. daily ×5,no weight loss occurred
same,signs of toxicity,[5]; dose levels up to 200 mg/kg,No signs of toxicity were apparent
same,hepatotoxicity,alanine transaminase [6],not hepatotoxic
same,detection in liver or kidneys at the end of the experiment,Pharmacokinetics in rats; rats,no CB3804 could be detected
same,Kidney level,Pharmacokinetics in rats; individual rats,< 0.5 % dose
same,Liver level,Pharmacokinetics in rats; individual rats,< 0.5 % dose
same,Cumulative biliary excretion,"Pharmacokinetics in rats; individual rats, 100 mg/kg",80 % dose
same,Cumulative urinary excretion,"Pharmacokinetics in rats; individual rats, 100 mg/kg",7 % dose
same,dose excreted,"Pharmacokinetics in rats; rat, bile, iv, 100 mg/kg, Cumulative biliary excretion, individual rats",72%
same,concentration at 1 h,"Pharmacokinetics in rats; rat, plasma, iv, 100 mg/kg, Plasma levels, end inf, individual rats",274 µM
same,concentration at 2 h,"Pharmacokinetics in rats; rat, plasma, iv, 100 mg/kg, Plasma levels, inf + 1 h, individual rats",10 µM
same,concentration at 3 h,"Pharmacokinetics in rats; rat, plasma, iv, 100 mg/kg, Plasma levels, inf + 2 h, individual rats",< 2 µM
same,concentration at 4 h,"Pharmacokinetics in rats; rat, plasma, iv, 100 mg/kg, Plasma levels, inf + 3 h, individual rats",< 2 µM
same,concentration at 5 h,"Pharmacokinetics in rats; rat, plasma, iv, 100 mg/kg, Plasma levels, inf + 4 h, individual rats",< 2 µM
same,concentration at 0.5 h,"Pharmacokinetics in rats; rat, plasma, iv, 100 mg/kg, Plasma levels, mid inf, individual rats",275 µM
same,dose excreted,"Pharmacokinetics in rats; rat, urine, iv, 100 mg/kg, Cumulative urinary excretion, individual rats",11%
same,concentration,"Pharmacokinetics in rats; end inf, individual rats, 100 mg/kg, 60 min",256 µM
same,concentration,"Pharmacokinetics in rats; inf + 1 h, individual rats, 120 min, 100 mg/kg, 120 min",19 µM
same,concentration,"Pharmacokinetics in rats; inf + 2 h, individual rats, 180 min",< 2 µM
same,concentration,"Pharmacokinetics in rats; inf + 3 h, individual rats, 240 min",< 2 µM
same,concentration,"Pharmacokinetics in rats; inf + 4 h, individual rats, 300 min",< 2 µM
same,concentration,"Pharmacokinetics in rats; mid inf, individual rats, 30 min, 100 mg/kg, 30 min",258 µM
same,plasma levels of alanine transaminase (in words),alanine transaminase [7]; rats,did not
same,Peak plasma alanine transaminase,alanine transaminase [7]; individual rats,57 % pre treatment and 143 % pre treatment
